# Test results from ChEMBL document CHEMBL4725304, “Synthesis and evaluations of selective COX-2 inhibitory effects: Benzo[d]thiazol analogs” (Bioorg Med Chem Lett, 2020).
# Activity calls are given as the source filed them. The calls are words filed in the database; no cut-off is given here.
# Tests used:
# [1] = system: Mus musculus; experiment: Antiinflammatory activity in mouse assessed as reduction in xylene-induced ear edema at 100 mg/kg, ip administered after prior to xylene stimulation and measured after 1 hr relative to control; assay type: functional
# [2] = system: Mus musculus; experiment: Antiinflammatory activity in mouse assessed as xylene-induced ear edema at 100 mg/kg, ip administered prior to xylene stimulation and measured after 1 hr (reference value: 2.05 +/- 0.40 mg); assay type: functional
# [3] = system: Mus musculus; experiment: Analgesic activity in mouse assessed as reduction in acetic acid-induced abdominal writhing at 100 mg/kg, ip relative to control; assay type: functional
# [4] = target: T1, Prostaglandin G/H synthase 2 (Homo sapiens, UniProt P35354); experiment: Inhibition of COX2 (unknown origin)
# T1 sequence (P35354 whole entry): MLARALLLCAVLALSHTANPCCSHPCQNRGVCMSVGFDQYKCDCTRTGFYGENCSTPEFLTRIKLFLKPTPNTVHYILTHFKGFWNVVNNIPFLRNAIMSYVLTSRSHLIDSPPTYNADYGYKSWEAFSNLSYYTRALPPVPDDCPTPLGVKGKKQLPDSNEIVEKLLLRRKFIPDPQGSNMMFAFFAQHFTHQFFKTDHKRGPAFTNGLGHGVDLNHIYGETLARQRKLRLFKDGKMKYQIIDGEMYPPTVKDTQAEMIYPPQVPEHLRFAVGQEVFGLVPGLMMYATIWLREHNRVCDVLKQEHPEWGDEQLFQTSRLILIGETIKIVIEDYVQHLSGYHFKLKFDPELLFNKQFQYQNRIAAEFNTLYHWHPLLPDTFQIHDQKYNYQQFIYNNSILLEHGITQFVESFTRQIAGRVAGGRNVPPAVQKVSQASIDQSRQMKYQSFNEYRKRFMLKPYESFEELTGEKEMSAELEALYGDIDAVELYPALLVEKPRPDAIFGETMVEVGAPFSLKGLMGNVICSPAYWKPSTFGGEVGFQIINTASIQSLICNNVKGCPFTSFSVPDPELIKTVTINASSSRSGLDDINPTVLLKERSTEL
# [5] = target: Prostaglandin G/H synthase 1 (Homo sapiens, UniProt P23219); experiment: Inhibition of COX1 (unknown origin); assay type: single protein
# Prostaglandin G/H synthase 1, sequence (P23219 whole entry): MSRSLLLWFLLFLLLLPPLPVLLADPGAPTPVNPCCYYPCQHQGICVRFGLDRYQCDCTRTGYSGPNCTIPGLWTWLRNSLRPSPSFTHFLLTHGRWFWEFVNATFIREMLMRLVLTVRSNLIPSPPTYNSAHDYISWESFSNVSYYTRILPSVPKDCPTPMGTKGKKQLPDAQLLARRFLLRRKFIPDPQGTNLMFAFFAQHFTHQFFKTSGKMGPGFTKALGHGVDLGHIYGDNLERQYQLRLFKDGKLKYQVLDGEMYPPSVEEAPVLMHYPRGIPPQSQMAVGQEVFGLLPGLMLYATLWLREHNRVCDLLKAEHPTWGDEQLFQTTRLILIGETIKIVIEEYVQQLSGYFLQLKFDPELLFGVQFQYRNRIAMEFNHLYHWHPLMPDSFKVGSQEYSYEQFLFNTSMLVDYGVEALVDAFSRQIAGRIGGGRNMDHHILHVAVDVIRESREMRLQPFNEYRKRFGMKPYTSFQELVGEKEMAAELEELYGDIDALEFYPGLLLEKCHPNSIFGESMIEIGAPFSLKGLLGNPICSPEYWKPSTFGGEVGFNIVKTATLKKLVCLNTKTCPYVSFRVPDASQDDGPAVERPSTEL
# [6] = species on record: Homo sapiens; experiment: Selectivity index, ratio of IC50 for COX1 (unknown origin) to IC50 for COX2 (unknown origin)
# [7] = system: Rattus norvegicus; experiment: Antiinflammatory activity against carrageenan-induced paw edema in rat assessed as inhibition of paw edema at 100 mg/kg, ip administered at 1 hr prior to carrageenan challenge and measured after 4 hrs by electronic-onkographic analysis; assay type: functional; settings: time 5 hrs
SMILES,inhibition in vivo at 100 mg/kg [1],Activity [2],inhibition in vivo at 100 mg/kg [3],inhibition [3],IC50 [4],IC50 [5],Ratio IC50 [6],inhibition in vivo at 100 mg/kg [7]
FC(F)(F)c1ccc(COc2nc3ccccc3s2)cc1,12.2%,1.8 mg,99.6%,,,,,
Cc1ccc(COc2nc3ccccc3s2)cc1,1.95%,2.01 mg,,inactive,,,,
Fc1ccc(OCCOc2nc3ccccc3s2)cc1,72.7%,0.56 mg,99.9%,,,,,
Clc1ccc(COc2nc3ccccc3s2)cc1,82.9%,0.35 mg,51.9%,,770 nM,5550 nM,7.2,
Clc1ccccc1COc1nc2ccccc2s1,14.6%,1.75 mg,,inactive,,,,
c1ccc(OCCOc2nc3ccccc3s2)cc1,7.31%,1.9 mg,,inactive,,,,
COc1ccc2c(c1)c(CC(=O)O)c(C)n2C(=O)c1ccc(Cl)cc1 [INDOMETHACIN],82.4%,0.36 mg,,,,,,
COc1ccc(COc2nc3ccccc3s2)cc1,2.43%,2 mg,,inactive,,,,
Brc1ccc(OCCOc2nc3ccccc3s2)cc1,94.6%,0.11 mg,68.6%,,500 nM,5320 nM,10.6,
c1ccc(COc2nc3ccccc3s2)cc1,68.8%,0.64 mg,51.9%,,,,,
FC(F)(F)c1ccccc1COc1nc2ccccc2s1,9.75%,2.03 mg,,inactive,,,,
COc1cc(COc2nc3ccccc3s2)cc(OC)c1,44.4%,1.14 mg,51.9%,,,,,
Brc1ccccc1COc1nc2ccccc2s1,75.6%,0.5 mg,51.9%,,,,,
Clc1cccc(COc2nc3ccccc3s2)c1,80%,0.41 mg,51.9%,,,,,
O=[N+]([O-])c1ccc(COc2nc3ccccc3s2)cc1,4.39%,1.96 mg,97%,,,,,
Clc1ccc(OCCOc2nc3ccccc3s2)c(Cl)c1,85.4%,0.3 mg,68.6%,,410 nM,4280 nM,10.4,
Cc1cc(C)cc(COc2nc3ccccc3s2)c1,0.5%,2.04 mg,51.9%,,,,,
Brc1ccc(COc2nc3ccccc3s2)cc1,78%,0.45 mg,51.9%,,,,,
N#Cc1ccc(COc2nc3ccccc3s2)cc1,12.7%,1.79 mg,,inactive,,,,
O=C(c1ccc([N+](=O)[O-])cc1)c1nc2ccc(F)c(Nc3ccccc3[N+](=O)[O-])c2s1,,,,,,,,78%
Fc1ccc(OCCOc2nc3ccccc3s2)c(F)c1,56.1%,0.9 mg,68.6%,,,,,
Fc1ccc(COc2nc3ccccc3s2)cc1,90.7%,0.19 mg,51.9%,,370 nM,6200 nM,16.8,
Brc1ccc(OCCOc2nc3ccccc3s2)c(Br)c1,87.3%,0.26 mg,68.6%,,360 nM,5080 nM,14.1,
Fc1ccccc1COc1nc2ccccc2s1,74.6%,0.52 mg,51.9%,,,,,
Brc1cccc(COc2nc3ccccc3s2)c1,77.6%,0.46 mg,51.9%,,,,,
Clc1ccc(OCCOc2nc3ccccc3s2)cc1,66.3%,0.69 mg,68.6%,,,,,
Fc1cccc(COc2nc3ccccc3s2)c1,86.8%,0.27 mg,51.9%,,280 nM,5220 nM,18.6,
